# From patent US11298345B2, “Compounds that modulates AMPA receptor function” (University College Cardiff Consultants Limited, priority 2018, dated 2022)
# Biological target: T1, human GluR2 flip (unedited) AMPA receptor subunit (Homo sapiens, UniProt P42262)
# T1 construct: host or cells: HEK 293
# Assay: AMPA calcium ion influx assay
# Assay type: cell-based
# Conditions: HEK293; test compound concentration of 10 μM; HEK 293 cells expressing human GluR2 flip; glutamate stimulus; read-out: Mean % response at 10 μM
# Source text: The potentiation of AMPA receptors by the compounds of the invention may be assessed by measuring calcium ion influx via AMPA receptors upon exposure of the receptor to glutamate in the presence of a test compound. One such assay is the calcium ion influx assay described in the Examples using cells which express human GluR2 flip (GluA2 flip) AMPA receptor subunits which form functional homotetrameric AMPA receptors. The GluA2 flip sub-units are highly expressed in cortical and sub-cortical brain tissue (Ward et al., 2010, ibid).
# The ability of the compounds of the invention to potentiate glutamate receptor-mediated response was determined using fluorescent calcium-indicator dye.
# 96 well plates were prepared containing confluent monolayer of HEK 293 cells stably expressing human GluR2 flip (unedited) AMPA receptor subunit (obtained from GlaxoSmithKline). These cells form functional homotetrameric AMPA receptors. The tissue culture medium in the wells was discarded and the wells were each washed three times with standard buffer for the cell line ([…] NaCl, 5 mM KCl, 1 mM MgCl2, 2 mM CaCl2, 20 mM N-[2-hydroxyethyl]-piperazine-N-[2-ethanesulfonic acid (HEPES), 5.5 mM glucose, pH7.3). The plates were then incubated for 60 minutes in the dark with 2 μM Calcium 6 dye (Molecular Devices). After incubation, each well was washed three times with buffer (80 μl).
# Compounds of the invention were dissolved in dimethylsulfoxide (DMSO) at a stock concentration of 10 mM. These solutions were further diluted with DMSO. Each dilution (4 μl) to another compound plate and buffer (200 μl) was added. An agonist stimulus plate (glutamate) was prepared by dissolving sodium glutamate in water to give a concentration of 100 mM. This solution was diluted with buffer to give a final concentration of 500 μM and dispensed into another 96 well plate (200 μl/well).
# The cell plate was then transferred to a fluorescence imaging plate reader such as the Flexstation 3 (Molecular Devices). A baseline fluorescence was taken over a 10 to 240 second period and then 40 μl from each plate containing a compound of the invention made up in standard buffer solution was added. Volumes were chosen to give a final concentration range of 40 μM to 4 μM. The fluorescence was then read over a 4 minute period. The activities of the compounds were determined by measuring peak fluorescence after the last addition. The activity can also be expressed relative to the fluorescence increase induced by cyclothiazide at their maximum response (i.e. greater than 40 μM).
# T1 sequence (P42262 22-883 isoform P42262-2 limits assumed): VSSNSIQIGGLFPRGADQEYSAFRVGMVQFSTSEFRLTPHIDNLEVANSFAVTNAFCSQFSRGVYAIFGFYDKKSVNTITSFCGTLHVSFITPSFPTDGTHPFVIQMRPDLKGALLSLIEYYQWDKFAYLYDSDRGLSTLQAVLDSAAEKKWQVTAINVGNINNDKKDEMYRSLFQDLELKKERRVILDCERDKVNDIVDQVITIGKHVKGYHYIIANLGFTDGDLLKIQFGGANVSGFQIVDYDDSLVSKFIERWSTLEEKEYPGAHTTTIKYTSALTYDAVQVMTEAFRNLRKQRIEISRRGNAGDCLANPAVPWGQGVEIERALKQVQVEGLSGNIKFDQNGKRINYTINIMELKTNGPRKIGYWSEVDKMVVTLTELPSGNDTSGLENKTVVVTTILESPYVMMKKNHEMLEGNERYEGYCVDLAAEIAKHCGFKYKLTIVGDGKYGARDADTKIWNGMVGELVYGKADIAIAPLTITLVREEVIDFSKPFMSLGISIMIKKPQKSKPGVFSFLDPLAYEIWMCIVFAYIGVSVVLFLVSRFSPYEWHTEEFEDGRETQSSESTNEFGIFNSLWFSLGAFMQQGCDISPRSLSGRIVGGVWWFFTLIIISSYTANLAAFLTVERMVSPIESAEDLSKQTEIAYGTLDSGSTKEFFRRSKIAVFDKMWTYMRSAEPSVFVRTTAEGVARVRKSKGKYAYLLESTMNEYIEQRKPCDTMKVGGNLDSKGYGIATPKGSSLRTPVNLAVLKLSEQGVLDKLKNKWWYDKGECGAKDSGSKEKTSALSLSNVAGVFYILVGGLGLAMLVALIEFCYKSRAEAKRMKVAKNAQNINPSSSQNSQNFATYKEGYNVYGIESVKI
row,activation at 10 µM [%],Compound
1,9,"O=C1CCCN1Cc1ccc(-c2nc(C(F)(F)F)ccc2CF)cn1 [Example 23, 1-[[5-[3-(Fluoromethyl)-6-(trifluoromethyl)-2-pyridyl]-2-pyridyl]methyl]pyrrolidin-2-one]"
2,9,"O=C1CCCN1Cc1ccc(-c2nc(C(F)(F)F)ccc2CO)cc1 [Example 4, 1-[[4-[3-(Hydroxymethyl)-6-(trifluoromethyl)-2-pyridyl]phenyl]methyl]pyrrolidin-2-one]"
3,99,"Cc1cc(C(F)(F)F)nc(-c2ccc(CN3CCCC3=O)cc2)c1C#N [Example 5, 4-Methyl-2-[4-[(2-oxopyrrolidin-1-yl)methyl]phenyl]-6-(trifluoromethyl)pyridine-3-carbonitrile]"
4,5,"O=C1CCCN1Cc1ccc(-c2nc(C(F)(F)F)ncc2CF)cc1 [Example 18, 1-[[4-[5-(Fluoromethyl)-2-(trifluoromethyl)pyrimidin-4-yl]phenyl]methyl]pyrrolidin-2-one]"
5,14,"O=C1COCCN1Cc1ccc(-c2ccc(CO)c(C(F)(F)F)n2)cc1 [Example 8, 4-[[4-[5-(Hydroxymethyl)-6-(trifluoromethyl)-2-pyridyl]phenyl]methyl]morpholin-3-one]"
6,93,"Cc1cc(C(F)(F)F)nc(-c2ccc(CN3CCCC3=O)nc2)c1CF [Example 22, 1-[[5-[3-(Fluoromethyl)-4-methyl-6-(trifluoromethyl)-2-pyridyl]-2-pyridyl]methyl]pyrrolidin-2-one]"
7,6,"N#Cc1ccc(C(F)(F)F)nc1-c1ccc(CN2CCCC2=O)nc1 [Example 15, 2-[6-[(2-Oxopyrrolidin-1-yl)methyl]-3-pyridyl]-6-(trifluoromethyl)pyridine-3-carbonitrile]"
8,9,"Cc1cc(C(F)(F)F)nc(-c2ccc(CN3CCCOCC3=O)cc2)c1CO [Example 12, 4-[[4-[3-(Hydroxymethyl)-4-methyl-6-(trifluoromethyl)-2-pyridyl]phenyl]methyl]-1,4-oxazepan-3-one]"
9,4,"CNC(=O)c1c(C)cc(C(F)(F)F)nc1-c1ccc(CN2CCCC2=O)cc1 [Example 3, N,4-Dimethyl-2-[4-[(2-oxopyrrolidin-1-yl)methyl]phenyl]-6-(trifluoromethyl)pyridine-3-carboxamide]"
10,3,"O=C1COCCN1Cc1ccc(-c2nc(C(F)(F)F)ccc2CO)cc1 [Example 10, 4-[[4-[3-(Hydroxymethyl)-6-(trifluoromethyl)-2-pyridyl]phenyl]methyl]morpholin-3-one]"
11,8,"O=C1CCCN1Cc1ccc(-c2cc(CO)cc(C(F)(F)F)n2)cc1 [Example 25, 1-[[4-[4-(Hydroxymethyl)-6-(trifluoromethyl)-2-pyridyl]phenyl]methyl]pyrrolidin-2-one]"
12,5,"Cc1cc(C(F)(F)F)nc(-c2ccc(CN3CCOCCC3=O)cc2)c1CO [Example 13, 4-[[4-[3-(Hydroxymethyl)-4-methyl-6-(trifluoromethyl)-2-pyridyl]phenyl]methyl]-1,4-oxazepan-5-one]"
13,21,"N#Cc1ccc(C(F)(F)F)nc1-c1ccc(CN2CCCC2=O)cc1 [Example 7, 2-[4-[(2-Oxopyrrolidin-1-yl)methyl]phenyl]-6-(trifluoromethyl)pyridine-3-carbonitrile]"
14,112,"Cc1cc(C(F)(F)F)nc(-c2ccc(CN3CCOCC3=O)cc2)c1CF [Example 20, 4-[[4-[3-(Fluoromethyl)-4-methyl-6-(trifluoromethyl)-2-pyridyl]phenyl]methyl]morpholin-3-one]"
15,5,"Cc1cc(C(F)(F)F)nc(-c2ccc(CN3CCCC3=O)nc2)c1CO [Example 14, 1-[[5-[3-(Hydroxymethyl)-4-methyl-6-(trifluoromethyl)-2-pyridyl]-2-pyridyl]methyl]pyrrolidin-2-one]"
16,29,"Cc1nc(C(F)(F)F)nc(-c2ccc(CN3CCCC3=O)cc2)c1C [Example 6, 1-[[4-[5,6-Dimethyl-2-(trifluoromethyl)pyrimidin-4-yl]phenyl]methyl]pyrrolidin-2-one]"
17,2,"O=C1CCCN1Cc1ccc(-c2nc(C(F)F)ccc2CO)cc1 [Example 28, 1-[[4-[6-(Difluoromethyl)-3-(hydroxymethyl)-2-pyridyl]phenyl]methyl]pyrrolidin-2-one]"
18,16,"O=C1COCCN1Cc1ccc(-c2nc(C(F)(F)F)ccc2CF)cc1 [Example 21, 4-[[4-[3-(Fluoromethyl)-6-(trifluoromethyl)-2-pyridyl]phenyl]methyl]morpholin-3-one]"
19,70,"O=C1CCCN1Cc1ccc(-c2nc(C(F)(F)F)ccc2CF)cc1 [Example 19, 1-[[4-[3-(Fluoromethyl)-6-(trifluoromethyl)-2-pyridyl]phenyl]methyl]pyrrolidin-2-one]"
20,28,"O=C1CCCN1Cc1ccc(-c2ccc(CF)c(C(F)(F)F)n2)cc1 [Example 16, 1-[[4-[5-(Fluoromethyl)-6-(trifluoromethyl)-2-pyridyl]phenyl]methyl]pyrrolidin-2-one]"
21,39,"Cc1cc(C(F)(F)F)nc(-c2ccc(CN3CCOCC3=O)cc2)c1C#N [Example 24, 4-Methyl-2-[4-[(3-oxomorpholin-4-yl)methyl]phenyl]-6-(trifluoromethyl)pyridine-3-carbonitrile]"
22,4,"COCc1cc(-c2ccc(CN3CCCC3=O)cc2)nc(C(F)(F)F)c1 [Example 26, 1-[[4-[4-(Methoxymethyl)-6-(trifluoromethyl)-2-pyridyl]phenyl]methyl]pyrrolidin-2-one]"
23,41,"Cc1cc(C(F)(F)F)nc(-c2ccc(CN3CCCC3=O)cc2)c1CO [Example 2, 1-[[4-[3-(Hydroxymethyl)-4-methyl-6-(trifluoromethyl)-2-pyridyl]phenyl]methyl]pyrrolidin-2-one]"
24,33,"O=C1CCCN1Cc1ccc(-c2ccc(CO)c(C(F)(F)F)n2)cc1 [Example 1, 1-[[4-[5-(Hydroxymethyl)-6-(trifluoromethyl)-2-pyridyl]phenyl]methyl]pyrrolidin-2-one]"
25,11,"N#Cc1ccc(C(F)(F)F)nc1-c1ccc(CN2CCOCC2=O)cc1 [Example 11, 2-[4-[(3-Oxomorpholin-4-yl)methyl]phenyl]-6-(trifluoromethyl)pyridine-3-carbonitrile]"
26,14,"Cc1cc(C(F)(F)F)nc(-c2ccc(CN3CCOCC3=O)cc2)c1CO [Example 9, 4-[[4-[3-(Hydroxymethyl)-4-methyl-6-(trifluoromethyl)-2-pyridyl]phenyl]methyl]morpholin-3-one]"
27,27,"Cc1cc(C(F)(F)F)nc(-c2ccc(CN3CCCC3=O)cc2)n1 [Example 27, 1-[[4-[4-Methyl-6-(trifluoromethyl)pyrimidin-2-yl]phenyl]methyl]pyrrolidin-2-one]"
28,111,"Cc1cc(C(F)(F)F)nc(-c2ccc(CN3CCCC3=O)cc2)c1CF [Example 17, 1-[[4-[3-(Fluoromethyl)-4-methyl-6-(trifluoromethyl)-2-pyridyl]phenyl]methyl]pyrrolidin-2-one]"
